Activity calls are given as the source filed them. Bounds are passed on as bounds.

Three compounds from ChEMBL document CHEMBL1201862, “PubChem BioAssay data set” (2004) can be followed below.

Test [1] deals with T1, Replicative DNA helicase DnaB (Mycobacterium tuberculosis, UniProt P9WMR3).
T1 sequence (P9WMR3 whole entry): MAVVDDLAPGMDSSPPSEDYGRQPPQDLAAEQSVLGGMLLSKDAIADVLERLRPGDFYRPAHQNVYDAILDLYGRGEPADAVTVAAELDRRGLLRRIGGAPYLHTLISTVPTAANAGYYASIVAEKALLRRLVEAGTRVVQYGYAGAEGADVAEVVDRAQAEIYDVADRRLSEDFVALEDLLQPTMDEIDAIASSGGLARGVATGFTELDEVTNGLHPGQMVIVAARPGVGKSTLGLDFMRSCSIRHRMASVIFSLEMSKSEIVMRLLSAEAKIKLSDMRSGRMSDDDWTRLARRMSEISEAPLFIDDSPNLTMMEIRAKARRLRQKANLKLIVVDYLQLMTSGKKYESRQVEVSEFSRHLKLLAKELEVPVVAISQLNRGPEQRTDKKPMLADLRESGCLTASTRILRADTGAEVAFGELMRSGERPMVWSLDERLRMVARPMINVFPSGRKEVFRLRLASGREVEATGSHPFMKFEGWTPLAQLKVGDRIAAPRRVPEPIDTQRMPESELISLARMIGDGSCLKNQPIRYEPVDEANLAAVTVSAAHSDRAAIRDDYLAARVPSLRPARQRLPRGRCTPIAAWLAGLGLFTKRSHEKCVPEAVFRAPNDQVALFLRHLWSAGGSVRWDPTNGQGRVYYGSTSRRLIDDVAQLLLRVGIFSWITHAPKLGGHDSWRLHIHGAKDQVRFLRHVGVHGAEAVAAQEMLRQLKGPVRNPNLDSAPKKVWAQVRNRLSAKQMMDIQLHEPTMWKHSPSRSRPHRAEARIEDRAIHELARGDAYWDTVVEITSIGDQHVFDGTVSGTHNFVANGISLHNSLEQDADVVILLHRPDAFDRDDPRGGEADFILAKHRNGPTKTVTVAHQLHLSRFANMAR
The test can be described thus: DnaB intein splicing inhibitors, dose response, biochemical, cell-free fluorescence (AID 449749). It counts as functional.

Test [2] has as its target T2, Protein RecA (Mycobacterium tuberculosis, UniProt P9WHJ3).
T2 sequence (P9WHJ3 whole entry): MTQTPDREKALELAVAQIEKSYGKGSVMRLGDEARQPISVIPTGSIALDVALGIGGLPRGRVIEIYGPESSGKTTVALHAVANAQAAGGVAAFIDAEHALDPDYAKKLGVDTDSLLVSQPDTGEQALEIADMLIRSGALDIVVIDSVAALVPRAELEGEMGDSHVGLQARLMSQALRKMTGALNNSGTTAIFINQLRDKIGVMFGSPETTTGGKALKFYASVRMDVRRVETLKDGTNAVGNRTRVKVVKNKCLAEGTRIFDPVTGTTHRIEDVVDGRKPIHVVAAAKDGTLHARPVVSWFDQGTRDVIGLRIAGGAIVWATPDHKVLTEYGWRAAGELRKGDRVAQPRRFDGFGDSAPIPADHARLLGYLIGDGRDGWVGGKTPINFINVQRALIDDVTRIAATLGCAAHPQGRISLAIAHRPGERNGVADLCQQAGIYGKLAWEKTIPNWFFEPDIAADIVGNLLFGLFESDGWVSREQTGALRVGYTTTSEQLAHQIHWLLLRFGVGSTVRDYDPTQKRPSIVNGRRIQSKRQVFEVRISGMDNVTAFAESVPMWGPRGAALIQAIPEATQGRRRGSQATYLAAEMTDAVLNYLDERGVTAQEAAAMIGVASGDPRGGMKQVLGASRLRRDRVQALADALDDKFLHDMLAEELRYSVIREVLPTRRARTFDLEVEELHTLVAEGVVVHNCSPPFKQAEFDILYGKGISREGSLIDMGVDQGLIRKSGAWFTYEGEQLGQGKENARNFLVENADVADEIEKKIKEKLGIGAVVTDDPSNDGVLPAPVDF
The test can be described thus: Fluorescence Cell-Free Homogeneous Dose Retest to Identify Inhibitors of RecA-Intein Splicing Activity. [Related pubchem assays (depositor defined):AID2097, AID2223, AID489010, AID492950]. It counts as functional.

Test [3] has as its target G-protein coupled receptor 55 (Homo sapiens, UniProt Q9Y2T6). The test can be described thus: selective activators of receptor GPR55 – imaging, U2OS cells, beta-arrestin-GFP redistribution, primary screen (AID 1961). It counts as functional.
The target of test [4] is Melanocortin receptor 4 (Homo sapiens, UniProt P32245). The test can be described thus: inhibitors of MC4R cAMP signaling – cell-based, TR-FRET, biased antagonists, dose response (AID 602298).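 Note: antagonist potency against agonist-stimulated cAMP production.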 It counts as functional. For orientation: In TR-FRET formats the signal depends on donor and acceptor labels being close together.
Melanocortin receptor 4, sequence (P32245 whole entry): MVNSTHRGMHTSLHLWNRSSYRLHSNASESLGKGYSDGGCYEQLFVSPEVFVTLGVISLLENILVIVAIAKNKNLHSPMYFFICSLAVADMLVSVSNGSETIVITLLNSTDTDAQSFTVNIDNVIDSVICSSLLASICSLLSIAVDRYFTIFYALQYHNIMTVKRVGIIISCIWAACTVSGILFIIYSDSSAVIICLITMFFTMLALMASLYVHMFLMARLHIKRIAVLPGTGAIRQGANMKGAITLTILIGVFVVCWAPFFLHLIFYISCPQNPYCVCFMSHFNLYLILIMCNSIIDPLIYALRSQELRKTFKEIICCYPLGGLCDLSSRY
A short description of test [5]: Intein inhibitors as potential Tuberculosis drugs, a cytotoxicity screen. [Related pubchem assays (depositor defined):AID2221, AID2223, AID434968, AID435010, AID449749, AID449750, AID489010]. It counts as functional.
Test [6] can be described thus: cAMP pathway inhibition in counterscreen cell line – TR-FRET cAMP detection, counter-screen for MC4R biased antagonist project, dose response (AID 602305).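 Note: U2OS cells stimulated with forskolin near its EC80 as the cAMP inducer; potency is for inhibition of forskolin-stimulated cAMP signaling.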 It counts as functional, cell-based.
In test [7] the target is T3, High affinity choline transporter 1 (Homo sapiens, UniProt Q9GZV3).
T3 sequence (Q9GZV3 whole entry): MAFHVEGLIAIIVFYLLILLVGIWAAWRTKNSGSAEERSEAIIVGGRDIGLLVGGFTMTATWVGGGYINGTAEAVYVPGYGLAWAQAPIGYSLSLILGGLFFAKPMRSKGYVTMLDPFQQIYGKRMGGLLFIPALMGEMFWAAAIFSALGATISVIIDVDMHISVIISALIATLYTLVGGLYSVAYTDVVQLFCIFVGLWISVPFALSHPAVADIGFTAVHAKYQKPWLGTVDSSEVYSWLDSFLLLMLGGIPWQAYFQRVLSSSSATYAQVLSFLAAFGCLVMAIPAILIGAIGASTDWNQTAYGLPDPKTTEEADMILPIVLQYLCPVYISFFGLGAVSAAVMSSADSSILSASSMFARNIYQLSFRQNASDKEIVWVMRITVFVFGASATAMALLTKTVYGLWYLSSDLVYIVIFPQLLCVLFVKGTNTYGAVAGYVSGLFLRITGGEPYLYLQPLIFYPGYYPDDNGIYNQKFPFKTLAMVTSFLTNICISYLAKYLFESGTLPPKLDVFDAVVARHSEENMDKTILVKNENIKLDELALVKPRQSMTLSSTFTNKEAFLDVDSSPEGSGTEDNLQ
The test is described as follows: human choline transporter blockers, potency – cell-based, 10-point CRC, membrane potential dye, dose response (AID 588401).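 Note: membrane potential dye fluorescence of choline-evoked depolarization via CHT.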 It counts as functional.

Test [8] addresses T3, High affinity choline transporter 1. The test is described as follows: human choline transporter blockers, potency – cell-based, 5-point CRC, membrane potential dye, dose response (AID 504840). It counts as functional.
A short description of test [9]: HepG2 cell cytotoxicity, dose response, cytotoxicity control for non-replicating M. tuberculosis project (AID 489018). It counts as functional. The settings on record: Mycobacterium tuberculosis.
The test system of test [10] is Streptococcus sp. 'group A'. The test is described as follows: Streptococcus pyogenes SK(-)GAS viability under kanamycin – luminescence, BacTiterGlo, confirmation, counter-screen for streptokinase expression inhibitor project, dose response (AID 1900). It counts as functional, organism-based. On the technique in general: The purpose of a counterscreen is to sort out artefacts and off-target activity.

Test [11] can be described thus: THP-1 cell cytotoxicity, dose response, cytotoxicity control for non-replicating M. tuberculosis project (AID 489025). It counts as functional.
Test [12] in a line: HepG2 cell cytotoxicity, dose response, cytotoxicity control, set 3 (AID 504853). It counts as functional. The settings on record: Mycobacterium tuberculosis.
A short description of test [13]: alpha-synuclein stem-loop luciferase translation blockers – H4 neuroglioma cells, luminescence, confirmation (AID 1988). It counts as functional, cell-based.
Test [14] deals with T4, Streptokinase A (Streptococcus pyogenes serotype M1, UniProt P10520).
T4 sequence (P10520 whole entry): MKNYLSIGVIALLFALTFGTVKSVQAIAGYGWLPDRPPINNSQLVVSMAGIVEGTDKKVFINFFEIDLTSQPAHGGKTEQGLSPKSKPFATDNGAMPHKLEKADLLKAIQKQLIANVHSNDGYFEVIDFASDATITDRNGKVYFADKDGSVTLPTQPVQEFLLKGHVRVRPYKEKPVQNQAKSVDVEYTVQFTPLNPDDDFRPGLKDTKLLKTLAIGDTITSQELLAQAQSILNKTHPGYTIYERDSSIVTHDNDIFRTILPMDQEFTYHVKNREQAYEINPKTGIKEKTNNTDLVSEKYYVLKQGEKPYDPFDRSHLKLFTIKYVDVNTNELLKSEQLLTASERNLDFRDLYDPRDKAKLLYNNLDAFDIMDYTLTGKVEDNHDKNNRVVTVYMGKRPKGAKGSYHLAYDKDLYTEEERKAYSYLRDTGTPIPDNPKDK
The test can be described thus: viability-normalized secreted streptokinase activity reduction – plasminogen activation absorbance, OD405, dose response (AID 1914).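 Note: secreted streptokinase activity via plasminogen activation per viability signal from cell pellet.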 It counts as functional, Streptococcus pyogenes M1 GAS.

Test [15] deals with Streptococcus. The test is described as follows: GAS UMAA2166 growth inhibition – luminescence, BacTiterGlo, counter-screen for streptokinase expression inhibitor project, dose response (AID 1915).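 Note: potency for reduction of bacterial viability or growth.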 It counts as functional, organism-based.
Test [16] in a line: THP-1 cell cytotoxicity, cytotoxicity control, set 4 (AID 504911). To be noted: Mycobacterium tuberculosis. It counts as functional.
A short description of test [17]: Vero E6 cell cytotoxicity, dose response, cytotoxicity control for non-replicating M. tuberculosis project, secondary assay (AID 492998). It counts as functional, VeroE6. To be noted: Vero C1008.
Test [18] in a line: A Cell Based Secondary Assay to Explore Cytotoxicity in THP-1 Cells of Compounds that Modulate Mycobacterium tuberculosis in Media Containing Glycerol versus Media without Glycerol (2). It counts as functional.
Test [19] is described as follows: microbe, parasite or virus in culture. It counts as functional. To be noted: Mycobacterium tuberculosis.
A short description of test [20]: A Cell Based Secondary Assay to Explore Cytotoxicity in HepG2 Cells of Compounds that Modulate Mycobacterium tuberculosis in Media Containing Glycerol versus Media without Glycerol (2). It counts as functional.
Test [21] can be described thus: Luminescence Cell-Based Dose Response HTS to Identify Inhibitors of 5'UTR Stem-Loop Driven Prion Protein mRNA Translation in H4 Neuroglioblastoma Cells. [Related pubchem assays: 1827 (Project Summary), 1813 (Primary HTS)]. It counts as functional.
The nature of test [22]: luciferase reporter signal suppression in cells – H4 neuroglioma cells, luminescence, dose response (AID 1990). It counts as functional, cell-based. Background: Reporter assays use an easily measured gene product as a stand-in for the process of interest.
Test [23] can be described thus: HepG2 cell cytotoxicity, cytotoxicity control, set 4 (AID 504910). It counts as functional. To be noted: Mycobacterium tuberculosis.
Test [24] in a line: Vero cell cytotoxicity, dose response, cytotoxicity control for M. tuberculosis growth inhibitor project, Vero cells, purified and synthesized compounds, set 5 (AID 504909). To be noted: Mycobacterium tuberculosis. It counts as functional.
Test [25] can be described thus: Vero cell cytotoxicity, cytotoxicity control for M. tuberculosis inhibitor project, purified and synthesized samples, set 3 (AID 504684). To be noted: […]. It counts as functional.
The nature of test [26]: THP-1 cell cytotoxicity, dose response, cytotoxicity control, set 3 (AID 504852). The settings on record: Mycobacterium tuberculosis. It counts as functional.
A short description of test [27]: cells. It counts as functional.
In test [28] the test system is INS1. The test is described as follows: INS-1E survival protection against cytokine death – cell-based, luminescence, retest, dose response (AID 449756).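 Note: cell death triggered by IL-1 beta plus TNF-alpha plus IFN-gamma mixture; protective hits raise ATP signal compared with cytokine alone wells.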 It counts as functional. The settings on record: Rattus norvegicus.
The nature of test [29]: NIH3T3 cell viability loss – ATP luminescence, mouse fibroblasts, counter-screen, dose response (AID 2010).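 Note: cells exposed to compound for about 90 hours before reading.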 It counts as functional, cell-based.
Test [30] can be described thus: Vero cell cytotoxicity, dose response, cytotoxicity control for M. tuberculosis growth inhibitor project, Vero cells, purified and synthesized compounds, set 4 (AID 504854). It counts as functional. To be noted: Mycobacterium tuberculosis.
A short description of test [31]: Trypanosoma cruzi growth suppression in host cells – NIH3T3 host cells, beta-gal luminescence, confirmation (AID 2044).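 Note: intracellular parasites grown in NIH/3T3 mouse fibroblasts as host cells; luminescent beta-galactosidase reporter signal from transgenic T. cruzi replicating inside host cells; inhibitors lower the luminescence signal.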 It counts as functional, cell-based.

G-protein coupled receptor 55, sequence (Q9Y2T6 whole entry): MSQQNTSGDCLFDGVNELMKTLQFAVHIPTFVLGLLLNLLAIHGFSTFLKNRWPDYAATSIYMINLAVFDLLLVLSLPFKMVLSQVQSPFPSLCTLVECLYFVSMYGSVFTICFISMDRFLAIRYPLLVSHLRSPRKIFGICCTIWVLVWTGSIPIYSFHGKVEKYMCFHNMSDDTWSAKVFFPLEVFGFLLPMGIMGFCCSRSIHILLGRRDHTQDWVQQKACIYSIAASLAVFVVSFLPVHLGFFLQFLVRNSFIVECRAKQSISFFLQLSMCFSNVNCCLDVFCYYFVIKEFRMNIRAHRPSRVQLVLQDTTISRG

Broadly, the AC50 is the concentration giving half of the maximal activity seen. As a reminder, the EC50 is the concentration needed to bring the measured effect to its halfway point. Broadly, the IC50 is the point on the concentration scale where inhibition reaches its midpoint. Take `Cc1ccc2c(c1)c1c3n2CCN(C(=O)CCl)C3CCC1` (stereo unspecified): the AC50 in test [1] is 2.05 µM (active). Also, the EC50 in [2] was 1.19 µM (active); in test [3], > 32 µM (inactive). Further, the IC50 in test [4] and in test [6] was > 64.6 µM (inactive) each time. The CC50 in test [5] was 24.7 µM (active).
As to `Cc1ccc[n+](CC(=O)c2ccc(Br)cc2)c1`, the IC50 in test [7] was 0.713 µM (active); in test [8] it was 0.0775 µM (inconclusive).
`c1ccc(N=C2N=C(Nc3ccccn3)c3ccccc32)nc1`: the CC50 in test [9] was < 0.039 µM (active); in test [11] it was 0.148 µM (active); in test [12] it was 21.2 µM (active); in test [16], > 76.9 µM (active); in test [17], 0.5 µM (active); in [18] it was < 0.2 µM (active). Further, the CC50 was > 40 µM (active) in test [19]; < 0.1 µM (active) in test [20]; > 41.3 µM (active) in test [23]; 60.5 µM (active) in test [24]; < 0.2 µM (active) in test [25]; > 71.4 µM (active) in test [26]. Besides, in test [30], the CC50 was > 100 µM (active). The concentration giving a half-maximal response (EC50) in test [10] was 5.41 µM (active); in [13], 13.4 µM (active); in [14], 22.2 µM (active); in test [15], > 150 µM (not active); in [21] it was > 120 µM (not active); in [22], 10.5 µM (active). In addition, the EC50 in [29] was 17.7 µM (active); in test [31], 0.687 µM (active). Also, the IC50 in test [27] is < 0.1 µM (active). Also, the AC50 in test [28] was 0.795 µM (active).
